Reference: ChEMBL document CHEMBL3044631, “Synthesis of 2-[4,5-dimethyl-1-(phenylamino)-1H-imidazol-2-ylthio]-N-(thiazole-2-yl)acetamide derivatives and their anticancer activities” (2013)

Columns and labels:
Assay type in all cases: functional
[1] = test system: SF-295; assay: Anticancer activity against Homo sapiens (human) SF295 cells after 48 hr by SRB assay; details: SF-295, 48 h
[2] = test system: HCC 2998; assay: Anticancer activity against Homo sapiens (human) HCC2998 cells after 48 hr by SRB assay; details: HCC 2998, 48 h
[3] = test system: NCI-H226; assay: Anticancer activity against Homo sapiens (human) NCI-H226 cells after 48 hr by SRB assay; details: NCI-H226, 48 h
[4] = test system: HOP-92; assay: Anticancer activity against Homo sapiens (human) HOP92 cells after 48 hr by SRB assay; details: HOP-92, 48 h; for CC50: read-out: LC50 (the source's name)
[5] = test system: A549; assay: Anticancer activity against Homo sapiens (human) A549/ATCC cells after 48 hr by SRB assay; details: A549, 48 h
[6] = test system: SR; assay: Anticancer activity against Homo sapiens (human) SR cells after 48 hr by SRB assay; details: for CC50: read-out: LC50 (the source's name)
[7] = test system: RPMI-8226; assay: Anticancer activity against Homo sapiens (human) RPMI8226 cells after 48 hr by SRB assay; details: RPMI-8226, 48 h; for CC50: read-out: LC50 (the source's name)
[8] = test system: CCRF-CEM; assay: Anticancer activity against Homo sapiens (human) CCRF-CEM cells after 48 hr by SRB assay
[9] = test system: MCF7; assay: Anticancer activity against Homo sapiens (human) MCF7 cells after 48 hr by SRB assay; details: MCF7, 48 h; for CC50: read-out: LC50 (the source's name)
[10] = test system: SK-MEL-28; assay: Anticancer activity against Homo sapiens (human) SK-MEL-28 cells after 48 hr by SRB assay; details: SK-MEL-28, 48 h
[11] = test system: M14; assay: Anticancer activity against Homo sapiens (human) M14 cells after 48 hr by SRB assay; details: M14, 48 h
[12] = test system: PC-3; assay: Anticancer activity against Homo sapiens (human) PC3 cells after 48 hr by SRB assay; details: PC-3, 48 h
[13] = test system: RXF 393; assay: Anticancer activity against Homo sapiens (human) RXF393 cells after 48 hr by SRB assay; details: RXF 393, 48 h
[14] = test system: 786-0; assay: Anticancer activity against Homo sapiens (human) 786-0 cells after 48 hr by SRB assay; details: 786-0, 48 h

COc1ccc(Nn2c(SCC(=O)Nc3nc(-c4ccc(Cl)cc4)cs3)nc(C)c2C)cc1
GI50 [1]: 2.18 µM | LC50 [1]: > 100 µM | TGI [1]: > 100 µM | GI50 [2]: 3.07 µM | LC50 [2]: > 100 µM | TGI [2]: 9.91 µM | GI50 [3]: 3.26 µM | LC50 [3]: > 100 µM | TGI [3]: > 100 µM | GI50 [4]: 2.42 µM | TGI [4]: 7.8 µM | CC50 [4]: > 100 µM | GI50 [5]: 3.32 µM | LC50 [5]: > 100 µM | TGI [5]: > 100 µM | GI50 [6]: 7.02 µM | TGI [6]: > 100 µM | CC50 [6]: > 100 µM | GI50 [7]: 5.8 µM | TGI [7]: > 100 µM | CC50 [7]: > 100 µM | GI50 [8]: 3.82 µM | LC50 (concentration killing 50% of cells) [8]: > 100 µM | TGI [8]: > 100 µM | GI50 [9]: 3.36 µM | TGI [9]: 25.5 µM | CC50 [9]: > 100 µM | GI50 [10]: 18 µM | LC50 [10]: > 100 µM | TGI [10]: > 100 µM | GI50 [11]: 3.02 µM | LC50 [11]: > 100 µM | TGI [11]: > 100 µM | GI50 [12]: 2.65 µM | LC50 (concentration killing 50% of cells) [12]: > 100 µM | TGI [12]: > 100 µM | GI50 [13]: 3.53 µM | LC50 (50% lethal concentration) [13]: > 100 µM | TGI [13]: 9.64 µM | GI50 [14]: 3.46 µM | LC50 (lethal concentration 50) [14]: > 100 µM | TGI [14]: 18.2 µM

Cc1ccc(Nn2c(SCC(=O)Nc3nc(-c4ccccc4)cs3)nc(C)c2C)cc1
GI50 [1]: 1.06 µM | LC50 [1]: > 100 µM | TGI [1]: 5.89 µM | GI50 [5]: 3.03 µM | LC50 [5]: > 100 µM | TGI [5]: > 100 µM | GI50 [11]: 3.7 µM | LC50 [11]: > 100 µM | TGI [11]: 48.6 µM | GI50 [14]: 4.41 µM | LC50 (lethal concentration 50) [14]: > 100 µM | TGI [14]: > 100 µM

Cc1nc(SCC(=O)Nc2nc(-c3ccc(Cl)cc3)cs2)n(Nc2ccccc2)c1C
GI50 [1]: 2.29 µM | LC50 [1]: > 100 µM | TGI [1]: 16.5 µM | GI50 [2]: 10.6 µM | LC50 [2]: 82.6 µM | TGI [2]: 29.5 µM | GI50 [3]: 3.37 µM | LC50 [3]: 93.9 µM | TGI [3]: 18.8 µM | GI50 [4]: 1.61 µM | TGI [4]: 6.89 µM | CC50 [4]: 38.9 µM | GI50 [5]: 2.9 µM | LC50 [5]: 40.1 µM | TGI [5]: 11.6 µM | GI50 [6]: 3.81 µM | TGI [6]: > 100 µM | CC50 [6]: > 100 µM | GI50 [7]: 3.55 µM | TGI [7]: > 100 µM | CC50 [7]: > 100 µM | GI50 [8]: 5.49 µM | LC50 (concentration killing 50% of cells) [8]: > 100 µM | TGI [8]: > 100 µM | GI50 [9]: 2.94 µM | TGI [9]: 11.4 µM | CC50 [9]: 52.2 µM | GI50 [10]: 10.1 µM | LC50 [10]: 59.7 µM | TGI [10]: 24.6 µM | GI50 [11]: 3.69 µM | LC50 [11]: 51.2 µM | TGI [11]: 16 µM | GI50 [12]: 2.34 µM | LC50 (concentration killing 50% of cells) [12]: 38.4 µM | TGI [12]: 11 µM | GI50 [13]: 2.97 µM | LC50 (50% lethal concentration) [13]: 26.8 µM | TGI [13]: 7.33 µM | GI50 [14]: 3.6 µM | LC50 (lethal concentration 50) [14]: 38.9 µM | TGI [14]: 13.7 µM
